The numbers were not newly measured in article PMC2737817 (Bioorganic & medicinal chemistry letters, 2009), which cites them from elsewhere.

The test system of one data set is MVD. As to conditions: read-out: Functional Bioactivity MVD (IC50); ± S.E.M.; ref [42]; SEM.
In the next data set the test system is GPI/LMMP. As to conditions: read-out: Functional Bioactivity GPI (IC50); ± S.E.M.; ref [42]; SEM.

Tyr-Pro-Trp-Phe-NH2 [EM-1]: the IC50 with MVD was 1710 ± 110 nM; in the data set on GPI/LMMP, 28 ± 3 nM.
On to Tyr-Pro-Phe-Phe-NH2 [EM-2], for which the IC50 in the data set with GPI/LMMP was 15 ± 2 nM.

Usually IC50 stands for the concentration at which inhibition is half-maximal.
